The series concerns CCRIS mutagenicity, Ames/micronucleus/aberration tests. The experiment in a line: CCRIS mutagenicity studies.

The structures appear in SMILES notation. Calls of active or inactive are those of the source. The rule behind the calls is not given here.

Regarding `CC(=O)Nc1ccc(-c2ccc(N)cc2)cc1`, the mutagenic call runs as follows: (Test System: AMES SALMONELLA TYPHIMURIUM, Strain/Indicator: TA1538, Metabolic Activation: GUINEA PIG, LIVER, HEPATOCYTES, Method: PREINCUBATION) “active; positive”; (Test System: AMES SALMONELLA TYPHIMURIUM, Strain/Indicator: TA1538, Metabolic Activation: GUINEA PIG, LIVER, S-9, ACETYL-COA (0.1 OR 1 MILLIMOLAR), Method: PREINCUBATION) “active; positive”; (Test System: AMES SALMONELLA TYPHIMURIUM, Strain/Indicator: TA1538, Metabolic Activation: GUINEA PIG, LIVER, S-9, Method: PREINCUBATION) “active; positive”; (Test System: AMES SALMONELLA TYPHIMURIUM, Strain/Indicator: TA1538, Metabolic Activation: HAMSTER, LIVER, HEPATOCYTES, Method: PREINCUBATION) “active; positive”; (Test System: AMES SALMONELLA TYPHIMURIUM, Strain/Indicator: TA1538, Metabolic Activation: HAMSTER, LIVER, S-9, ACETYL-COA (0.1 OR 1 MILLIMOLAR), Method: PREINCUBATION) “active; positive”; (Test System: AMES SALMONELLA TYPHIMURIUM, Strain/Indicator: TA1538, Metabolic Activation: HAMSTER, LIVER, S-9, Method: PREINCUBATION) “active; positive”. Also, the mutagenic call is “active; positive” (Test System: AMES SALMONELLA TYPHIMURIUM, Strain/Indicator: TA1538, Metabolic Activation: RAT, LIVER, HEPATOCYTES, Method: PREINCUBATION); “active; positive” (Test System: AMES SALMONELLA TYPHIMURIUM, Strain/Indicator: TA1538, Metabolic Activation: RAT, LIVER, S-9, ACETYL-COA (0.1 OR 1 MILLIMOLAR), Method: PREINCUBATION); “active; positive” (Test System: AMES SALMONELLA TYPHIMURIUM, Strain/Indicator: TA1538, Metabolic Activation: RAT, LIVER, S-9, Method: PREINCUBATION); “inactive; negative” (Test System: Ames Salmonella typhimurium, Strain/Indicator: TA102, Metabolic Activation: None, Method: Preincubation); “active; positive” (Test System: Ames Salmonella typhimurium, Strain/Indicator: TA102, Metabolic Activation: Rat, liver, S-9, Aroclor 1254, 4%, Method: Preincubation).

(Values after PubChem BioAssay AID1259407 (Chemical Carcinogenesis Research Information System (CCRIS), 2018).)
